Data set [1] deals with lever-pressing behavior in rats. Briefly: Single-dose reinstatement (SDR) of lever-pressing after 12 μmol/kg cocaine. It is filed as in vivo, Male Sprague-Dawley rats. To be noted: for average difference in latency between vehicle and SCH23390: 10 nmol/kg SCH23390 alone, absence of h2E2; for mean latency of lever-pressing behavior: 0 nmol/kg gave 17.11, FIG. 6; for mean duration of lever-pressing: 0 nmol/kg gave 35.44, FIG. 7.

For data set [2] the following is noted: in vivo; cited from earlier work.

Each structure is given as a SMILES string.

With `CN1CCc2cc(Cl)c(O)cc2[C@@H](c2ccccc2)C1` [SCH23390], the “average difference in latency between vehicle and SCH23390” value in data set [1] (FIG. 9) is “about 2.81 minutes”; in data set [1] (FIG. 9, listed as SCH233390), 2.81 min. Moreover, the “average duration of lever-pressing activity” value in data set [1] (10 nmol/kg SCH23390 before SDR, in the presence of h2E2 (4 separate days from day seven after h2E2), FIG. 10) is 9.28 min. In addition, the “average decrease in latency versus the prior day (h2E2 alone)” value in data set [1] (10 nmol/kg SCH23390 before SDR, in the presence of h2E2 (from seven days after 360 umol/kg h2E2), FIG. 9) was found to be 2.56 min. The figures for the “mean latency of lever-pressing behavior” value in data set [1] (SCH23390 alone 10 nmol/kg IV before 12 μmol/kg cocaine SDR), in data set [1] (SCH23390 alone 20 nmol/kg IV before 12 μmol/kg cocaine SDR) and in data set [1] (SCH23390 alone 30 nmol/kg IV before 12 μmol/kg cocaine SDR) were 12.17, 5.17 and 1.72, respectively. For the same molecule, the figures for the “mean duration of lever-pressing” value in data set [1] (SCH23390 alone 10 nmol/kg), in data set [1] (SCH23390 alone 20 nmol/kg) and in data set [1] (SCH23390 alone 30 nmol/kg) were 23.16, 5.43 and 2.05, respectively. In data set [1] (days with 10 nmol/kg SCH23390 in the presence of h2E2, FIG. 8), the average latency stood at 9.93 min. The t-max result in data set [2] is on record as “approximately 30 min”.

These data come from US20250340671A1, “METHODS AND PHARMACEUTICAL COMPOSITIONS FOR REDUCING THE NEURO[…] OF COCAINE” (University of Cincinnati, priority 2022, published 2025).
